{"source": "paper PMC8333425", "about": "“Discovery of a dual Ras and ARF6 inhibitor from a GPCR endocytosis screen” (Nature Communications, 2021)", "assay_in_all_cases": "KINOMEscan kinase binding assay", "key": {"[1]": {"target": "T1, 384 kinases from the human genome (Homo sapiens, UniProt O14936)", "T1 construct": "purchased Eurofin/DiscoverX", "T1 sequence (O14936 whole entry)": "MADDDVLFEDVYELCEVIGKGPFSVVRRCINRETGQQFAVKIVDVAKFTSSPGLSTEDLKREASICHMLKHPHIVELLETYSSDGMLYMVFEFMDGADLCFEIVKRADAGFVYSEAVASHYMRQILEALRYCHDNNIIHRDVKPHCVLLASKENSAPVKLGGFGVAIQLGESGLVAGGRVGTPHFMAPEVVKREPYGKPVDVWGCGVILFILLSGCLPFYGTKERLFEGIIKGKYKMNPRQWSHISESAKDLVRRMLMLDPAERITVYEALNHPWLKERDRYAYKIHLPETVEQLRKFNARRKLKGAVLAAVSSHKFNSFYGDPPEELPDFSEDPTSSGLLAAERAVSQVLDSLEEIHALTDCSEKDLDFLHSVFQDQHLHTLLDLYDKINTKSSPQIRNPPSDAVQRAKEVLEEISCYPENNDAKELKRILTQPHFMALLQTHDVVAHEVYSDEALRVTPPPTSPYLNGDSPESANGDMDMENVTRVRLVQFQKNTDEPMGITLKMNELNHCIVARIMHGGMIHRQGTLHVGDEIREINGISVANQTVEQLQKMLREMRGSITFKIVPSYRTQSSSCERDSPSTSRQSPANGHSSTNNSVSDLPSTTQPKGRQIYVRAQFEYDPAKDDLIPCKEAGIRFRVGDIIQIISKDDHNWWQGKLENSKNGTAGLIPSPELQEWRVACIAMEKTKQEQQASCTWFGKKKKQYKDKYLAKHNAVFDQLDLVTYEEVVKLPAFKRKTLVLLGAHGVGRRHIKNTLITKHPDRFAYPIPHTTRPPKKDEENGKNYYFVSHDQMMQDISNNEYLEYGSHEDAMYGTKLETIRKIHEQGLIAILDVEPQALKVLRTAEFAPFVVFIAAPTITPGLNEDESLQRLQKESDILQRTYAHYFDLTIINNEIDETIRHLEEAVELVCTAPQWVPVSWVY", "settings": "kinase CASK (Entrez CASK)", "in_short": "(§1)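 A panel of 384 human kinases was profiled by KINOMEscan binding in the presence of 10 µM compound. Kinase–ligand binding was given as percent of DMSO control, averaged from duplicates in a single run, with an S(10) selectivity score.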"}, "[2]": {"target": "T2, 384 kinases from the human genome (Homo sapiens, UniProt O43318)", "T2 construct": "purchased Eurofin/DiscoverX", "settings": "kinase TAK1 (Entrez MAP3K7)", "in_short": "as §1"}, "[3]": {"target": "T3, 384 kinases from the human genome (Homo sapiens, UniProt O95819)", "T3 construct": "purchased Eurofin/DiscoverX", "settings": "kinase MAP4K4 (Entrez MAP4K4)", "in_short": "as §1"}, "[4]": {"target": "T4, 384 kinases from the human genome (Homo sapiens, UniProt P11802)", "T4 construct": "purchased Eurofin/DiscoverX", "T4 sequence (P11802 whole entry)": "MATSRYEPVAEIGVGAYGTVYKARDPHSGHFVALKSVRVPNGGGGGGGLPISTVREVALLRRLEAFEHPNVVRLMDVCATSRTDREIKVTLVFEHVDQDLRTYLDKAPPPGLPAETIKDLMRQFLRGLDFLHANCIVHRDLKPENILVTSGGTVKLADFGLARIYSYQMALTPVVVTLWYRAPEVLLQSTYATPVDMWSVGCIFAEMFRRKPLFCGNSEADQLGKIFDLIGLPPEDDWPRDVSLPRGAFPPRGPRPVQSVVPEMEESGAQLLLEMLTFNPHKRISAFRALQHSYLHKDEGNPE", "in_short": "as §1"}, "[5]": {"target": "T5, 384 kinases from the human genome (Homo sapiens, UniProt P16591)", "T5 construct": "purchased Eurofin/DiscoverX", "settings": "kinase FER (Entrez FER)", "in_short": "as §1"}, "[6]": {"target": "T6, 384 kinases from the human genome (Homo sapiens, UniProt P29322)", "T6 construct": "purchased Eurofin/DiscoverX", "settings": "kinase EPHA8 (Entrez EPHA8)", "in_short": "as §1"}, "[7]": {"target": "T7, 384 kinases from the human genome (Homo sapiens, UniProt P46734)", "T7 construct": "purchased Eurofin/DiscoverX", "settings": "kinase MEK3 (Entrez MAP2K3)", "in_short": "as §1"}, "[8]": {"target": "T8, 384 kinases from the human genome (Homo sapiens, UniProt P51817)", "T8 construct": "purchased Eurofin/DiscoverX", "T8 sequence (P51817 whole entry)": "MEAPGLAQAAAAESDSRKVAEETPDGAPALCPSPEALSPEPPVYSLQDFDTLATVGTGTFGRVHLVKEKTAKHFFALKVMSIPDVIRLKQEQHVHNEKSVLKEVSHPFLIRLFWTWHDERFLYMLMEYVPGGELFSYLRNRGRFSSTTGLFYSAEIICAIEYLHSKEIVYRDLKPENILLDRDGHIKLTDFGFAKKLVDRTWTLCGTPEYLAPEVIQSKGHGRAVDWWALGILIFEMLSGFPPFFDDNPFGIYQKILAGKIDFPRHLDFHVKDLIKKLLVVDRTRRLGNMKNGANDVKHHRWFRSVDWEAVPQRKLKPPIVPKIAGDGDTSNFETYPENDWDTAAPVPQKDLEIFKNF", "settings": "kinase PRKX (Entrez PRKX)", "in_short": "as §1"}, "[9]": {"target": "T9, 384 kinases from the human genome (Homo sapiens, UniProt Q00526)", "T9 construct": "purchased Eurofin/DiscoverX", "T9 sequence (Q00526 whole entry)": "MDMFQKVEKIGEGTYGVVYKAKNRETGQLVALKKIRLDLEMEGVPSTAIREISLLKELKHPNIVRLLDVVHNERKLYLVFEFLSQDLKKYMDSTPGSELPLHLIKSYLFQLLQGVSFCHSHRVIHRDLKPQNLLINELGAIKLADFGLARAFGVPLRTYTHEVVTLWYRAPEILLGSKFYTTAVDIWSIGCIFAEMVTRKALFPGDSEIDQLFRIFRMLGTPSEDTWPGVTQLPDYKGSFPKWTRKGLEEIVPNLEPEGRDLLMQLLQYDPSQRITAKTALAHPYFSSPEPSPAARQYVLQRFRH", "settings": "kinase CDK3 (Entrez CDK3)", "in_short": "as §1"}, "[10]": {"target": "T10, 384 kinases from the human genome (Homo sapiens, UniProt Q02156)", "T10 construct": "purchased Eurofin/DiscoverX", "T10 sequence (Q02156 whole entry)": "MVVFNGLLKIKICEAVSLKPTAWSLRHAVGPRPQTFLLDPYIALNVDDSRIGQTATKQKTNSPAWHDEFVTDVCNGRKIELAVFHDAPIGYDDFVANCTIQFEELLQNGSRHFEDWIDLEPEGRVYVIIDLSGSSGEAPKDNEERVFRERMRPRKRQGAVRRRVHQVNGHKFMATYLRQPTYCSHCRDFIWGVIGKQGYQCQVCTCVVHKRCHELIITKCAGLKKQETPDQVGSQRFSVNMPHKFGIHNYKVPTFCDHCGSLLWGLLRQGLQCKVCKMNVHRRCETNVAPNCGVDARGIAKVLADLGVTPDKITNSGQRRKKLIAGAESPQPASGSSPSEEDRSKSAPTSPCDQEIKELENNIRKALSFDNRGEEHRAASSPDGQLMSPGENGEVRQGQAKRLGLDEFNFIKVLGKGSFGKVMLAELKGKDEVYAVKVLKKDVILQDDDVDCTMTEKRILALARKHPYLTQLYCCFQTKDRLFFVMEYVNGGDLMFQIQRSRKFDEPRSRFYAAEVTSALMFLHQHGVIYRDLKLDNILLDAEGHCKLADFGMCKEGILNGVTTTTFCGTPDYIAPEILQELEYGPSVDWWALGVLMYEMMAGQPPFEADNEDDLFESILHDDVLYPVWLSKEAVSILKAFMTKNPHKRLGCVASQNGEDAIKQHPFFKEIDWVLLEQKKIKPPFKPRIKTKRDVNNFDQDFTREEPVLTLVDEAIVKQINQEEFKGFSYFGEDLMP", "settings": "kinase PRKCE (Entrez PRKCE)", "in_short": "as §1"}, "[11]": {"target": "T11, 384 kinases from the human genome (Homo sapiens, UniProt Q05655)", "T11 construct": "purchased Eurofin/DiscoverX", "T11 sequence (Q05655 whole entry)": "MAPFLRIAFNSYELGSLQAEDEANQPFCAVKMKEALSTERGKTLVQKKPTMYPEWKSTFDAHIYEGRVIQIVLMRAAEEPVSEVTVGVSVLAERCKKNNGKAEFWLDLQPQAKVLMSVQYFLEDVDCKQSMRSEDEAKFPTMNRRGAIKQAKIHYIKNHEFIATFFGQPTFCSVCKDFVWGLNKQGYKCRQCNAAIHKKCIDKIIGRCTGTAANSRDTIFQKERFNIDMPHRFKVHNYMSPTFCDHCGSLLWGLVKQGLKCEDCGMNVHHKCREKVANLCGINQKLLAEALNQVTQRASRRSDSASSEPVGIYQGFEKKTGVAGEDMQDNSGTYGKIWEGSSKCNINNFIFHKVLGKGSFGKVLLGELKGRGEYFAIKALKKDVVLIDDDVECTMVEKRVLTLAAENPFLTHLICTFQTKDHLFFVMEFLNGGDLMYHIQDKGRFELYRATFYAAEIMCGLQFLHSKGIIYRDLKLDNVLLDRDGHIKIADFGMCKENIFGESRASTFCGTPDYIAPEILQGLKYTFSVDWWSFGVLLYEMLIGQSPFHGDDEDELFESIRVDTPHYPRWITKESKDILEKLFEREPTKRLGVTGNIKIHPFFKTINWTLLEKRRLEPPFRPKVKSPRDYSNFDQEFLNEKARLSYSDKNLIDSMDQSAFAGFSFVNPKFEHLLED", "settings": "kinase PRKCD (Entrez PRKCD)", "in_short": "as §1"}, "[12]": {"target": "T12, 384 kinases from the human genome (Homo sapiens, UniProt Q13523)", "T12 construct": "purchased Eurofin/DiscoverX", "settings": "kinase PRP4 (Entrez PRPF4B)", "in_short": "as §1"}, "[13]": {"target": "T13, 384 kinases from the human genome (Homo sapiens, UniProt Q15208)", "T13 construct": "purchased Eurofin/DiscoverX", "T13 sequence (Q15208 whole entry)": "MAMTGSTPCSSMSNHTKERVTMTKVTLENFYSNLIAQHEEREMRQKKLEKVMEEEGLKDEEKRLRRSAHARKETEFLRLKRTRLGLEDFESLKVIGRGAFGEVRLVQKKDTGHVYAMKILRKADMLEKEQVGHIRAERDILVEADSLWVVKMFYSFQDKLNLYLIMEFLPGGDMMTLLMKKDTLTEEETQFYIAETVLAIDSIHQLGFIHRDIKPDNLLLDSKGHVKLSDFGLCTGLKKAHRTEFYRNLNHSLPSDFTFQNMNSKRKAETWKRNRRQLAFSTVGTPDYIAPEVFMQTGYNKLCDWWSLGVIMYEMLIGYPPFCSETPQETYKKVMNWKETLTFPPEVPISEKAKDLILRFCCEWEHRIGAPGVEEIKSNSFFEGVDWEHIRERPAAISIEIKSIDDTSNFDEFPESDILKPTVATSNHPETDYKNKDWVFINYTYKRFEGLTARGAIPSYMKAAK", "settings": "kinase NDR1 (Entrez STK38)", "in_short": "as §1"}, "[14]": {"target": "T14, 384 kinases from the human genome (Homo sapiens, UniProt Q8TF76)", "T14 construct": "purchased Eurofin/DiscoverX", "T14 sequence (Q8TF76 whole entry)": "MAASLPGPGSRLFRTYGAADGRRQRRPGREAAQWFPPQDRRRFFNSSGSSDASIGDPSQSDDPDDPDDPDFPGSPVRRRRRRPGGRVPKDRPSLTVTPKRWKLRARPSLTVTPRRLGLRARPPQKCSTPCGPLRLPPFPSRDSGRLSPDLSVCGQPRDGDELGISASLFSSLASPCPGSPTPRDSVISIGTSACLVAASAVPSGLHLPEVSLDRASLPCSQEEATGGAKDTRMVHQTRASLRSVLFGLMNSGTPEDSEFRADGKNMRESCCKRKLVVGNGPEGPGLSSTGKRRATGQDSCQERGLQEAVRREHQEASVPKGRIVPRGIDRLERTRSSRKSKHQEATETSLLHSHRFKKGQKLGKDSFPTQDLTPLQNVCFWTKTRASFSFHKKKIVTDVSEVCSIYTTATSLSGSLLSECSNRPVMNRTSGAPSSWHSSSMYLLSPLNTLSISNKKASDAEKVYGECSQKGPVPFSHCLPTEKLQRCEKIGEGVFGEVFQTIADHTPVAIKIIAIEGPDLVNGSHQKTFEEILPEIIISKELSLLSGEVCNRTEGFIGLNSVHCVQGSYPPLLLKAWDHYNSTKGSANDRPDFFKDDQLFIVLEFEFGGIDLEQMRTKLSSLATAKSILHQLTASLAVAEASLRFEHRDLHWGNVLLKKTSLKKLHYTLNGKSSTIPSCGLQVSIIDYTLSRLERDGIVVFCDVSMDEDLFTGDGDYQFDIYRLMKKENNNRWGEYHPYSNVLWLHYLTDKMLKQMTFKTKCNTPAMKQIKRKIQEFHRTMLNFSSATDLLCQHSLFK", "settings": "kinase HASPIN (Entrez GSG2)", "in_short": "as §1"}, "[15]": {"target": "T15, 384 kinases from the human genome (Homo sapiens, UniProt Q96BR1)", "T15 construct": "purchased Eurofin/DiscoverX", "settings": "kinase SGK3 (Entrez SGK3)", "in_short": "as §1"}, "[16]": {"target": "T16, 384 kinases from the human genome (Homo sapiens, UniProt Q99683)", "T16 construct": "purchased Eurofin/DiscoverX", "settings": "kinase ASK1 (Entrez MAP3K5)", "in_short": "as §1"}, "[17]": {"target": "T17, 384 kinases from the human genome (Homo sapiens, UniProt Q9H093)", "T17 construct": "purchased Eurofin/DiscoverX", "settings": "kinase SNARK (Entrez NUAK2)", "in_short": "as §1"}, "[18]": {"target": "T18, 384 kinases from the human genome (Homo sapiens, UniProt Q9H3Y6)", "T18 construct": "purchased Eurofin/DiscoverX", "settings": "kinase SRMS (Entrez SRMS)", "in_short": "as §1"}, "[19]": {"target": "T19, 384 kinases from the human genome (Homo sapiens, UniProt Q9HBH9)", "T19 construct": "purchased Eurofin/DiscoverX", "settings": "kinase MKNK2 (Entrez MKNK2)", "in_short": "as §1"}, "[20]": {"target": "T20, 384 kinases from the human genome (Homo sapiens, UniProt Q9NSY1)", "T20 construct": "purchased Eurofin/DiscoverX", "settings": "kinase BIKE (Entrez BMP2K)", "in_short": "as §1"}, "[21]": {"target": "T21, 384 kinases from the human genome (Homo sapiens, UniProt Q9UKE5)", "T21 construct": "purchased Eurofin/DiscoverX", "settings": "kinase TNIK (Entrez TNIK)", "in_short": "as §1"}, "[22]": {"target": "T22, 384 kinases from the human genome (Homo sapiens, UniProt Q9UQB9)", "T22 construct": "purchased Eurofin/DiscoverX", "T22 sequence (Q9UQB9 whole entry)": "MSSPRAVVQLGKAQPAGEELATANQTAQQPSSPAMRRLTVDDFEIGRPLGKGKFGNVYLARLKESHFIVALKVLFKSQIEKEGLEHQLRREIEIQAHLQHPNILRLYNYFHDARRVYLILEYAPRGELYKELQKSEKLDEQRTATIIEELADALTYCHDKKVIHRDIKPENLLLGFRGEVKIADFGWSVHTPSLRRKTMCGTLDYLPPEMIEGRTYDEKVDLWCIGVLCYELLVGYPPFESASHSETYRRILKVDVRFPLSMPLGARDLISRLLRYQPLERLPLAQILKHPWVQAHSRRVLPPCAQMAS", "settings": "kinase AURKC (Entrez AURKC)", "in_short": "as §1"}, "[23]": {"target": "T23, 384 kinases from the human genome (Homo sapiens, UniProt Q9Y2H9)", "T23 construct": "purchased Eurofin/DiscoverX", "settings": "kinase MAST1 (Entrez MAST1)", "in_short": "as §1"}, "[24]": {"target": "T24, 384 kinases from the human genome (Homo sapiens, UniProt Q9Y2I7)", "T24 construct": "purchased Eurofin/DiscoverX", "settings": "kinase PIKFYVE (Entrez PIKFYVE)", "in_short": "as §1"}, "[25]": {"target": "T25, 384 kinases from the human genome (Homo sapiens, UniProt Q9Y5S2)", "T25 construct": "purchased Eurofin/DiscoverX", "settings": "kinase MRCKB (Entrez CDC42BPB)", "in_short": "as §1"}, "[26]": {"test_system": "384 kinases from the human genome", "settings": "10 µM of 21", "in_short": "as §1"}}, "data": [{"smiles": "CC(C)C(=O)N1CCN(c2ccc(NC(=O)c3cc4ccccc4o3)cc2Cl)CC1", "note": "[Compound 21]", "values": [{"measurement": "Percent Control", "setting": "[1]", "result": 100, "unit": "%"}, {"measurement": "Percent Control", "setting": "[2]", "result": 83, "unit": "%"}, {"measurement": "Percent Control", "setting": "[3]", "result": 66, "unit": "%"}, {"measurement": "Percent Control", "setting": "[4]; kinase CDK4 (Entrez CDK4)", "result": 97, "unit": "%"}, {"measurement": "Percent Control", "setting": "[4]; kinase CDK4-cyclinD1 (Entrez CDK4)", "result": 86, "unit": "%"}, {"measurement": "Percent Control", "setting": "[4]; kinase CDK4-cyclinD3 (Entrez CDK4)", "result": 96, "unit": "%"}, {"measurement": "Percent Control", "setting": "[5]", "result": 90, "unit": "%"}, {"measurement": "Percent Control", "setting": "[6]", "result": 94, "unit": "%"}, {"measurement": "Percent Control", "setting": "[7]", "result": 76, "unit": "%"}, {"measurement": "Percent Control", "setting": "[8]", "result": 100, "unit": "%"}, {"measurement": "Percent Control", "setting": "[9]", "result": 99, "unit": "%"}, {"measurement": "Percent Control", "setting": "[10]", "result": 99, "unit": "%"}, {"measurement": "Percent Control", "setting": "[11]", "result": 100, "unit": "%"}, {"measurement": "Percent Control", "setting": "[12]", "result": 100, "unit": "%"}, {"measurement": "Percent Control", "setting": "[13]", "result": 91, "unit": "%"}, {"measurement": "Percent Control", "setting": "[14]", "result": 98, "unit": "%"}, {"measurement": "Percent Control", "setting": "[15]", "result": 91, "unit": "%"}, {"measurement": "Percent Control", "setting": "[16]", "result": 79, "unit": "%"}, {"measurement": "Percent Control", "setting": "[17]", "result": 96, "unit": "%"}, {"measurement": "Percent Control", "setting": "[18]", "result": 100, "unit": "%"}, {"measurement": "Percent Control", "setting": "[19]", "result": 97, "unit": "%"}, {"measurement": "Percent Control", "setting": "[20]", "result": 100, "unit": "%"}, {"measurement": "Percent Control", "setting": "[21]", "result": 57, "unit": "%"}, {"measurement": "Percent Control", "setting": "[22]", "result": 87, "unit": "%"}, {"measurement": "Percent Control", "setting": "[23]", "result": 100, "unit": "%"}, {"measurement": "Percent Control", "setting": "[24]", "result": 61, "unit": "%"}, {"measurement": "Percent Control", "setting": "[25]", "result": 94, "unit": "%"}, {"measurement": "binding to ERK subtypes", "setting": "[26]", "result": "failed to bind"}, {"measurement": "binding to MEK subtypes", "setting": "[26]", "result": "failed to bind"}, {"measurement": "binding to PI3K subtypes", "setting": "[26]", "result": "failed to bind"}, {"measurement": "binding to different Akt subtypes", "setting": "[26]", "result": "failed to bind"}]}]}
